{"source": "patent US5912258A", "about": "“Thiadiazoleamide derivative and anti-ulcer drug” (Shiseido Co., Ltd., priority 1998, dated 1999)", "key": {"stress ulcer formation": {"test_system": "stress ulcer formation", "experiment": "WIS: Restraint and Water Immersion Stress-Induced Ulcer Inhibition Test", "type": "in vivo, Male Crj:SD or Slc:SD rats", "details": "for WIS: ulcer formation inhibitory rate: rat, 100 mg/kg orally, 7 hours water immersion stress", "description": "WIS: Restraint and Water Immersion Stress-Induced Ulcer Inhibition Test (i) Meaning The degree of inhibition of the stress ulcer formation is tested. (ii) Method Male Crj:SD or Slc:SD rats (6 to 7-weeek-old) were fasted overnight, but allowed free access to water. Each group has 5 to 8 of these rats. The sample compound was dissolved or suspended in an aqueous solution of 0.3% sodium carboxymethylcellulose or 0.05% Tween 80 and then was orally administered (100 mg/10 ml/kg). To a control group, the vehicle was administered. 10 minutes later, the rats were placed in a stress cage and immersed to the level of xiphoid process in a water bath (21° C.) for 7 hours. At the end of the stress, the rats were sacrificed by inhalation of ether or carbon dioxide. Then, the stomach of each was removed, inflated by injecting 10 ml of 5% formalin neutral buffer solution, and immersed in 1% formalin neutral buffer solution for 30 minutes or more to be fixed. The stomach was incised along the greater curvature and then the length of each erosion in the glandular portion was determined under dissecting microscope. The sum of the length of erosions per stomach was defined as ulcer index (UI). (iii) Judgment Standard […]"}, "[1]": {"test_system": "isolated gastric fundic gland", "experiment": "CAP: Acid Secretion Inhibition Test in vitro ([^14 C]-aminopyrine uptake)", "type": "cell-based, male Japanese White rabbit", "details": "rabbit isolated gastric fundic gland, 10^-5 M, histamine 10^-5 M; for inhibition at 10 µM: Oryctolagus cuniculus, read-out: CAP: Acid secretion inhibitory rate", "description": "CAP: Acid Secretion Inhibition Test in vitro (i) Meaning The acid secretion inhibitory activity in a cell level is studied. It can also be used for studying the mechanism of the effect. (ii) Method (ii)-(a) Preparation of isolated gastric gland suspension First, an isolated gastric fundic gland sample was prepared. Namely, a male Japanese White rabbit (2.5 to 3 kg) was anesthetized to death with Nembutal™ and then the abdomen was incised. Immediately thereafter, the stomach was removed and, after its pyloric and cardiac antrum were severed, incised along its greater curvature into two sheets. The gastric contents adhering to the mucosal surface was washed out with ice-cooled PBS (-) and then carefully washed therein. The gastric wall was spread on a cork board with its mucosal surface facing up and the feed and mucus thereon were completely removed with sterile gauze. The mucosa was separated therefrom by a spatula and then collected in ice-cooled PBS (-). After being washed twice with PBS (-), the mucosa was minced into 2-3 mm^3 pieces by scissors. These pieces were further washed twice with a nutrient solution. The nutrient solution comprises 132.4 mM of NaCl, 5.4 mM of KCl, 5 mM of Na2 HPO4 ·12H2 O, 1 mM of NaH2 PO4 ·2H2 O, 1.2 mM of MgSO4, 1 mM of CaCl2, 25 mM of HEPES, 2 mg/ml of glucose, and 1 mg/ml of BSA. Into 70 ml of the nutrient solution containing 1 mg/ml of collagenase, minced mucosal pieces were dispersed and intensely stirred in a conical flask with a stirrer at 37° C. for 40 to 60 minutes. […] The nutrient solution was added to the reaction solution so as to attain the total amount of about 200 ml. After being filtered through a mesh, the suspension was divisionally introduced into 50 ml centrifuge tubes and left for 15 minutes such that gastric fundic gland was deposited. The supernatant was repeatedly removed by an aspirator, dispersed in the nutrient solution, and then left such that the gastric fundic gland was washed three times. At this time, without using a pipette, the suspension was alternately introduced into two centrifuge tubes so as to effect dispersion. The number of cells was counted under microscope and adjusted to 1.6×10^6 cells/ml. (ii)-(b) [^14 C]-aminopyrine uptake test Then [^14 C]-aminopyrine uptake test was performed. After an Eppendorf tube was weighed, 10 μl (final concentration: 10^-5 M) of histamine dissolved in the above-mentioned nutrient solution, 10 μl (final concentration: 10 ^-5 M) of the test compound dissolved in DMSO, and 10 μl (final concentration: 0.05 μCi/ml) of [^14 C]-aminopyrine diluted with the nutrient solution were introduced therein and then 970 μl of the isolated gastric fundic gland suspension prepared above were added thereto. Subsequently, this mixture was shaken at 37° C. for 40 minutes at 125 cycles/minute. After being centrifuged for 30 minutes 200 μl of its supernatant was collected into a mini-vial, while the rest was removed by an aspirator. The gland pellet was completely dried as the tube with its lid being opened was kept for one night in a drying oven at 80° C. and then the weight was determined at room temperature. Then 100 μl of 1N KOH was added thereto an the tube with its lid being closed was treated at 60° C. for 1 to 2 hours so as to dissolve the pellet. Then, the contents thereof were transferred to a mini-vial. Into the mini-vial containing the supernatant or gland pellet, 4 ml of Atomlite™ was added and then the radioactivity was measured by a liquid scintillation counter. Here, after the radioactivity of the gland pellet was corrected by using a sample in which 20 mM of NaSCN was added so as to cancel the hydrogen ion concentration gradient, the integration ratio of aminopyrine specifically trapped by the gland pellet was calculated. This experiment was performed in duplicate. (ii)-(c) Calculation of the accumulation rate of aminopyrine Here, its principle will be briefly explained. […]"}, "[2]": {"experiment": "MTT: Cell Damaging and Protecting Effect Test", "type": "cell-based, male Japanese White rabbit", "details": "rabbit, gastric mucosa cells, 10^-4 M, smaller value is better, read-out: MTT: cell damaging rate", "source_text": "(§1) MTT: Cell Damaging and Protecting Effect Test\n(§2) It is confirmed that there is no toxicity in cell level. Those having toxicity in cell level are inappropriate as an anti-ulcer drug.\n(§3) A male Japanese White rabbit (2.5 to 3 kg) was anesthetized to death by Nembutal™ and, immediately thereafter, its stomach was removed. The greater curvature of the stomach was incised so as to remove the stomach contents therefrom. After the mucosal surface was washed with HBSS (Hank's Balanced Salt Solution), the stomach in ice-cooled HBSS was transferred to a laboratory. Then, after the pyloric antrum was removed, the gastric corpus mucosa was separated by a spatula and then minced into 2 to 3 mm pieces in BME (Basal Medium Eagle). Thereafter, these pieces were shaken at 120 to 130 cycles/minute for 15 minutes at 37° C. in BME 60 ml containing 280 U/ml of dispase and 30 to 50 U/mil of collagenase. Here, the concentration of collagenase was appropriately changed for each lot in view of the state of cells. The pieces were washed twice with EBSS (Earle's Balanced Salt Solution) containing 1 mM of EDTA and then shaken in MEM (Minimum Essential Medium) containing 1 mM of EDTA at 37° C. for 5 minutes. Subsequently, they were shaken in the dispase and collagenase having the same concentrations as those mentioned above for 15 minutes so as to remove the supernatant and then further shaken at 37° C. for 50 to 60 minutes at 120 to 130 cycles/minute. Then, after being washed twice with HBSS, Ham F12 containing 2% of Ultrocer G™ was used to attain the concentration of 1×10^6 cells/ml. Thus formed suspension was dispensed in each well of a 96-well plate by 200 μl. The plate was incubated in the atmosphere composed of 5% CO2 and 95% air at 37° C. for three days so as to attain a confluent state and then subjected to MTT assay.\n(§4) The sample compound was dissolved in DMSO so as to attain a concentration of 10^-2 M and then diluted with HBSS containing 2% of Ultrocer G™ so as to attain a final concentration of 10^-4 M. To each group, which 8 wells were used for, 10 μl of MTT reagent was added immediately after 100 μl of the medium in each well was exchanged for same volume of the resulting solution of the sample compound. After being incubated in an atmosphere composed of 5% CO2 and 95% air at 37° C. for 4 hours, thus formed solution was centrifuged and then its supernatant was discarded. Subsequently, 100 μl of 100% ethanol was added to the residue so as to dissolve MTT formazan. Then, the absorbance (OD: 570 to 630) was measured by a microplate reader. This method utilizes a phenomenon in which MTT is changed to MTT formazan only by mitochondria of living cells so as to change color.\n(§5) The cell damaging or cell protecting effect of the sample compound at the final concentration of 10^-4 M was expressed as cell damaging rate (%) as follows:\n(§6) cell damaging rate (%)={1-(absorbance in sample group/absorbance in control group)}×100\n(§7) Accordingly, the smaller value is better in the cell damaging rate."}, "[3]": {"test_system": "gastric corpus mucosa cells", "experiment": "MTT: Cell Damaging and Protecting Effect Test", "type": "cell-based, male Japanese White rabbit", "details": "rabbit gastric mucosa cells, 10^-4 M, 4 hours; smaller value is better; 100 µM", "source_text": "as §1, §2, §3, §4, §5, §6, §7"}}, "data": [{"smiles": "CCN(CC)CCCSc1nnc(NC(=O)c2ccc(OC/C=C(\\C)CCC=C(C)C)cc2)s1", "note": "[Example 11, 2-(4-geranyloxybenzoyl)amino-5-diethylaminopropylthio-1,3,4-thiadiazole]", "values": [{"measurement": "WIS: ulcer formation inhibitory rate", "setting": "stress ulcer formation", "result": 65, "unit": "%"}, {"measurement": "inhibition at 10 µM", "setting": "[1]", "result": 100, "unit": "%"}, {"measurement": "cytotoxicity at 4 h, 100 µM", "setting": "[2]", "result": 48, "unit": "%"}]}, {"smiles": "CC(C)=CCC/C(C)=C/COc1ccc(C(=O)Nc2nnc(SCc3ccccc3)s2)cc1", "note": "[Example 18, 2-(4-geranyloxybenzoyl)amino-5-benzylthio-1,3,4-thiadiazole]", "values": [{"measurement": "WIS: ulcer formation inhibitory rate", "setting": "stress ulcer formation", "result": 32, "unit": "%"}, {"measurement": "cytotoxicity at 4 h, 100 µM", "setting": "[2]", "result": 18, "unit": "%"}]}, {"smiles": "CC(C)c1ccc(C(=O)Nc2nnc(SCCN(C(C)C)C(C)C)s2)cc1.Cl", "note": "[Example 3, 2-(4-isopropylbenzoyl)amino-5-diisopropylaminoethylthio-1,3,4-thiadiazole hydrochloride]", "values": [{"measurement": "WIS: ulcer formation inhibitory rate", "setting": "stress ulcer formation", "result": 96, "unit": "%"}, {"measurement": "CAP: Acid secretion inhibitory rate", "setting": "[1]", "result": 104, "unit": "%"}, {"measurement": "MTT: cell damaging rate", "setting": "[3]", "result": -75, "unit": "%"}]}, {"smiles": "CCN(CC)CCSc1nnc(NC(=O)c2ccc(NC(C)(C)C)cc2)s1", "note": "[Example 9, 2-(4-tert-butyaminobenzoyl)amino-5-diethylaminoethylthio-1,3,4-thiadiazole]", "values": [{"measurement": "WIS: ulcer formation inhibitory rate", "setting": "stress ulcer formation", "result": 51, "unit": "%"}, {"measurement": "inhibition at 10 µM", "setting": "[1]", "result": 2, "unit": "%"}, {"measurement": "cytotoxicity at 4 h, 100 µM", "setting": "[2]", "result": -107, "unit": "%"}]}, {"smiles": "CCN(CC)CCSc1nnc(NC(=O)c2cc(C(C)(C)C)cc(C(C)(C)C)c2)s1", "note": "[Example 6, 2-(3,5-di-tert-butylbenzoyl)amino-5-diethylaminoethylthio-1,3,4-thiadiazol]", "values": [{"measurement": "anti-ulcer effect (in words)", "setting": "stress ulcer formation; WIS", "result": "sufficient effects"}, {"measurement": "WIS: ulcer formation inhibitory rate", "setting": "stress ulcer formation", "result": 81, "unit": "%"}, {"measurement": "inhibition at 10 µM", "setting": "[1]", "result": 100, "unit": "%"}, {"measurement": "cytotoxicity at 4 h, 100 µM", "setting": "[2]", "result": 58, "unit": "%"}]}, {"smiles": "CC(C)=CCC/C(C)=C/COc1ccc(C(=O)Nc2nnc(SCCCN3CCCCC3)s2)cc1", "note": "[Example 13, 2-(4-geranyloxybenzoyl)amino-5-piperidinopropylthio-1,3,4-thiadiazole]", "values": [{"measurement": "WIS: ulcer formation inhibitory rate", "setting": "stress ulcer formation", "result": 51, "unit": "%"}, {"measurement": "inhibition at 10 µM", "setting": "[1]", "result": 100, "unit": "%"}, {"measurement": "cytotoxicity at 4 h, 100 µM", "setting": "[2]", "result": 41, "unit": "%"}]}, {"smiles": "CC(C)=CCC/C(C)=C/COc1ccc(C(=O)Nc2nnc(SCC(C)C)s2)cc1", "note": "[Example 17, 2-(4-geranyloxybenzoyl)amino-5-isobutylthio-1,3,4-thiadiazole]", "values": [{"measurement": "WIS: ulcer formation inhibitory rate", "setting": "stress ulcer formation", "result": 46, "unit": "%"}, {"measurement": "cytotoxicity at 4 h, 100 µM", "setting": "[2]", "result": -4, "unit": "%"}]}, {"smiles": "CC(C)N(CCSc1nnc(NC(=O)c2ccc(C(C)(C)C)cc2)s1)C(C)C", "note": "[Example 5, 2-(4-tert-butylbenzoyl)amino-5-diisopropylaminoethylthio-1,3,4-thiadiazole]", "values": [{"measurement": "WIS: ulcer formation inhibitory rate", "setting": "stress ulcer formation", "result": 63, "unit": "%"}, {"measurement": "inhibition at 10 µM", "setting": "[1]", "result": 100, "unit": "%"}, {"measurement": "cytotoxicity at 4 h, 100 µM", "setting": "[2]", "result": -19, "unit": "%"}]}, {"smiles": "CCN(CC)CCSc1nnc(NC(=O)c2ccc(OC(C)C)cc2)s1", "note": "[Example 7, 2-(4-isopropyloxybenzoyl)amino-5-diethylaminoethylthio-1,3,4-thiadiazole]", "values": [{"measurement": "WIS: ulcer formation inhibitory rate", "setting": "stress ulcer formation", "result": 76, "unit": "%"}, {"measurement": "inhibition at 10 µM", "setting": "[1]", "result": 97, "unit": "%"}, {"measurement": "cytotoxicity at 4 h, 100 µM", "setting": "[2]", "result": 46, "unit": "%"}]}, {"smiles": "CCCSc1nnc(NC(=O)c2ccc(OC/C=C(\\C)CCC=C(C)C)cc2)s1", "note": "[Example 16, 2-(4-geranyloxybenzoyl)amino-5-propylthio-1,3,4-thiadiazole]", "values": [{"measurement": "WIS: ulcer formation inhibitory rate", "setting": "stress ulcer formation", "result": 53, "unit": "%"}, {"measurement": "cytotoxicity at 4 h, 100 µM", "setting": "[2]", "result": 14, "unit": "%"}]}, {"smiles": "CCN(CC)CCSc1nnc(NC(=O)c2ccc(OC(C)(C)C)cc2)s1", "note": "[Example 8, 2-(4-tert-butoxybenzoyl)amino-5-diethylaminoethylthio-1,3,4-thiadiazole]", "values": [{"measurement": "WIS: ulcer formation inhibitory rate", "setting": "stress ulcer formation", "result": 66, "unit": "%"}, {"measurement": "inhibition at 10 µM", "setting": "[1]", "result": 99, "unit": "%"}, {"measurement": "cytotoxicity at 4 h, 100 µM", "setting": "[2]", "result": -11, "unit": "%"}]}]}
